Read-outs that look alike come from different tables or passages of the source.
What was measured:
[1] = test system: SMS; conditions: cited from earlier work
[2] = test system: PKCδ; experiment: Western blot analysis of nuclear PKCδ (PKCδ nuclear translocation) in splenic B cells; assay type: cell-based, mouse
Source text: Generally speaking, PKCs are known to receive DAG on the plasma membrane for their full activation and subsequent subcellular translocation. However, in B cells, the plasma membrane DAG provider that activates PKCδ nuclear translocation is still unknown. Whether SMS2 was the DAG provider for PKCδ activation in mature B cells was therefore tested. In contrast to Sgms2^+/+ naive B cells, nuclear PKCδ was barely detectable in the Sgms2^−/− naive B cells following 24 hr culture. […] This DAG analog-dependent effect supported the involvement of SMS2-derived DAG in activation of PKCδ nuclear translocation.
To further clarify the mechanism that regulates PKCδ activation by SMS2-generated DAG, whether enhancing SMS2 activity could correspondingly increase PKCδ nuclear translocation in cultured Sgms2^+/+ B cells was tested.
293T cells were transfected with plasmid vectors to overexpress FLAG-tagged different SMS2 portions as indicated. Protein lysates from transfected 293T cells were immunoprecipitated with anti-FLAG antibody and then immunoblotted with anti-PKCδ antibody. Sample loading was controlled by inputs of cell lysates. […] Thus, SMS2 is a critical and direct PKCδ activator in mature B cells.

[3] = test system: NZBWF1 mice; experiment: Serum total IgG and anti-dsDNA IgG titers by ELISA in NZBWF1 mice (spontaneous SLE mouse model); assay type: in vivo; conditions: female NZBWF1 mice, four weeks
Source text: Given that PKCδ nuclear translocation was promoted by enhancing SMS2 activity with 2OHOA, whether this drug could be adopted to strengthen B cell tolerance in NZBWF1 mice that spontaneously develop SLE due to impaired tolerance caused by multiple genetic variants other than Sgms2 or Prkcd was examined. Remarkably, the expected increase in titers of anti-dsDNA IgGs in the sera of NZBWF1 mice over the same time frame as sham treated mice was impeded by 2OHOA treatment. […] This treatment started when the mouse serum anti-dsDNA IgG level reached the levels between 1,000 ng/ml and 30,000 ng/ml. The titers of serum total IgG and anti-dsDNA IgG were measured by ELISA. Shown in the graph are ratios of the IgG titers after treatment to the titers before treatment. Mann-Whitney test (2 tailed) was used to calculate p values, SEMs, and other parameters as shown in the graph and table. Data represents the results of 15 2OHOA-treated and 10 empty vehicle-treated mice.

[4] = target: T1, SMS2 (Mus musculus, UniProt Q9D4B1); experiment: Elisa analysis of plasma membrane DAG levels in B cells; assay type: cell-based; conditions: purified Sgms2+/+ B cells
T1 construct: endogenous in cells; host or cells: purified primary splenic B cells from Sgms2+/+ mice (C57BL/6 background); Sgms2-/- B cells as knockout control
T1 sequence (Q9D4B1 1-365): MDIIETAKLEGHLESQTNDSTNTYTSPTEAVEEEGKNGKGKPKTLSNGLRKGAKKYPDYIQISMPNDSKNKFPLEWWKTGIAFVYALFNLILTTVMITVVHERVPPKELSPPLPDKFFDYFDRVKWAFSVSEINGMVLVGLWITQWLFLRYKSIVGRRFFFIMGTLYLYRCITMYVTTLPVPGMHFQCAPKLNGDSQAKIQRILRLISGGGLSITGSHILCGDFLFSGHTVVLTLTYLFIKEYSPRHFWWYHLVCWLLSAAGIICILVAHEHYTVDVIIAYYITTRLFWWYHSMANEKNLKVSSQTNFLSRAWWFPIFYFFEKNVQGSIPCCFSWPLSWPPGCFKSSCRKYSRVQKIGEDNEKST

[5] = test system: splenic B cells; experiment: Lysenin toxicity assay of surface SM levels in splenic B cells; assay type: cell-based, mouse; conditions: Sgms2-/- B cells, SM supplementation
[6] = as disclosed in U.S. Pat. No. 9,359,281

In the case of CC/C=C\C/C=C\C/C=C\CCCCCCC(O)C(=O)O (stereo not drawn) [2-hydroxy-alpha-linoleic acid], the “stimulation of SMS activity” value [1, 6] is listed as “stimulate SMS activity”.
In the case of CCCCC/C=C\C/C=C\C/C=C\CCCC(O)C(=O)O (stereo not shown) [2-hydroxy-gamma-linoleic acid], the “stimulation of SMS activity” value [1, 6] is listed as “stimulate SMS activity”.
For CCCCC/C=C\C/C=C\CCCCCCC(O)C(=O)O (stereo not shown) [2-hydroxylinoleic acid], the “stimulation of SMS activity” value [1, 6] is given as “stimulate SMS activity”.
For CCCCCC/C=C\CCCCCCC(O)C(=O)O (stereo not shown) [2-hydroxypalmitoleic acid], the “stimulation of SMS activity” value [1, 6] is given as “stimulate SMS activity”.
For CCCCCCCC/C=C\CCCCCCC(O)C(=O)O (stereo not shown) [2OHOA, 2-hydroxyoleic acid], the PKCδ nuclear translocation ([2]; Sgms2-/- B cells, 2OHOA-treated) was “but not in Sgms2^−/− B cells”, the PKCδ nuclear translocation ([2]; purified Sgms2+/+ B cells, 2OHOA-treated) was “increased” and the “increase in titers of anti-dsDNA IgGs in the sera” value ([3]; oral gavage 400 mg/kg per day, vs sham treated mice) was “impeded”. The “total serum IgG titers” value ([3]; oral gavage 400 mg/kg/day) was “without reducing the total serum IgG titers” and the “SMS2-derived DAG level (plasma membrane DAG)” value [4] was “increased”.
In the case of CCCCCCCC/C=C\CCCCCC[C@H](O)C(=O)O [(S)-2OHOA, (S)-2-hydroxyoleic acid], the “stimulation of SMS activity” value ([1]; compared with (R)-2-hydroxyoleic acid or a mixture of the two stereoisomers) is given as “more strongly stimulates SMS activity”.
In the case of C/C=C(/C)C(=O)O[C@H]1C(C)=C[C@]23C(=O)[C@@H](C=C(CO)[C@@H](O)[C@]12O)[C@H]1[C@@H](C[C@H]3C)C1(C)C [I3A, ingenol-3-angelate], the “nuclear PKCδ” value ([2]; Sgms2+/+ B cells cultured for 30 minutes) was “increased nuclear PKCδ” and the “nuclear PKCδ” value ([2]; Sgms2-/- B cells cultured for 30 minutes) was “increased nuclear PKCδ”.
For CCCCCCCCCCCCCC(=O)O[C@@H]1[C@@H](C)[C@@]2(O)[C@@H](C=C(CO)C[C@]3(O)C(=O)C(C)=C[C@@H]23)[C@@H]2C(C)(C)[C@]12OC(C)=O [PMA], the PKCδ nuclear translocation ([2]; Sgms2+/+ B cells, PMA) was “promotion of PKCδ nuclear translocation” and the PKCδ nuclear translocation ([2]; Sgms2-/- B cells, PMA) was “but not in Sgms2^−/− B cells”.
In the case of sphingomyelin [SM], the “surface SM level” value [5] was “Restoration of surface SM level” and the “nuclear PKCδ level” value ([2]; Sgms2-/- B cells, SM supplementation 24 hr) was “could not restore”.
